Measurements reported in patent US9505728B2, “Triazolone compounds and uses thereof” (INCEPTION 2, INC., priority 2012, dated 2016).
Where two headings read alike, the source gives them in different places.

Experiments:
[1] = biological target: T1, Estrogen Receptor β (Homo sapiens, UniProt Q92731); assay: Target selectivity counterscreen, Estrogen Receptor β reporter assay; type: cell-based; conditions: receptor agonist at ~EC80
T1 construct: host or cells: engineered reporter cells of the kit
T1 sequence (Q92731 whole entry): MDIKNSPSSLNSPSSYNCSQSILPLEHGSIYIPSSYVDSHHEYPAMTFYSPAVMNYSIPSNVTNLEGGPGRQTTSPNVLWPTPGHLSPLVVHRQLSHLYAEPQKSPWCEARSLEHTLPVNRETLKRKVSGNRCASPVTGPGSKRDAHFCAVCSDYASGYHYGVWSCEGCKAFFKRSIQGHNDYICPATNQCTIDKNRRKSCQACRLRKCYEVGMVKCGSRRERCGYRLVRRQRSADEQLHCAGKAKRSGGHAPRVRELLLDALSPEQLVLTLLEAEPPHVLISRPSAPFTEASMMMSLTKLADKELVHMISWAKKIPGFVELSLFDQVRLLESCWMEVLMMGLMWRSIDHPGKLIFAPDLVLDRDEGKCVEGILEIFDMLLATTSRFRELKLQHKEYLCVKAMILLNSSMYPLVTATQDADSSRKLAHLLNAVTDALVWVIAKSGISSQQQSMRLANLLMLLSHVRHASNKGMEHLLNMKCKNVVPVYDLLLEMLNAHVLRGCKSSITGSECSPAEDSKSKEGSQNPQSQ
Description: (§1) Target Selectivity Assays
(§2) To determine species selectivity, a Mouse PPARα Reporter Assay System was used (Indigo Biosciences, Cat. #M00111). Activity of test compounds to antagonize or agonize other isoforms of human PPAR, for example β/δ and γ, were assessed using the corresponding kits from Indigo Biosciences (Cat. #IB00121 and #IB00101, respectively). In addition to PPAR activity, compounds were also screened for activity against other nuclear hormone receptors including Estrogen Receptor β, Glucocorticoid Receptor and Thyroid Receptor β using commercially available kits (Indigo Biosciences, Cat. #IB00411, IB00201 and IB01101, respectively). Each assay system from Indigo Biosciences uses technology analogous to the human PPARα kit, with the variance being that the cells used for each assay were engineered to over-express the receptor of interest. In addition, the appropriate receptor agonist (included with each kit) was used at ˜EC80 for assays in which antagonist potency was being assessed.

[2] = biological target: T2, Thyroid Receptor β (Homo sapiens, UniProt P10828); assay: Target selectivity counterscreen, Thyroid Receptor β reporter assay; type: cell-based; conditions: receptor agonist at ~EC80
T2 construct: host or cells: engineered reporter cells of the kit
T2 sequence (P10828 1-461): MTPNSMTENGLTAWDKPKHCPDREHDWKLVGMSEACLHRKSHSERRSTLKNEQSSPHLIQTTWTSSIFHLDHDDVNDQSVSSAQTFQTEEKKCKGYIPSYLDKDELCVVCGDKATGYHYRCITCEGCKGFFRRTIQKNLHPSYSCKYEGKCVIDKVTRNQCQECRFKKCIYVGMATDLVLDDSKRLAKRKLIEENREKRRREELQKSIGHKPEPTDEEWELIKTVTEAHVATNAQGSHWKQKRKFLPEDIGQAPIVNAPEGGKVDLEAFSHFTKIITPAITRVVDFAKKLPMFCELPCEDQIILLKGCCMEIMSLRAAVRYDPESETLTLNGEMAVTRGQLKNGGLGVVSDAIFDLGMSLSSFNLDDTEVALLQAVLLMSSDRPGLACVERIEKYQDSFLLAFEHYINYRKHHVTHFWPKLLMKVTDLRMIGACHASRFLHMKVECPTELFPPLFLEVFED
Description: as §1, §2

[3] = system: B16F10 melanoma cells; assay: In vivo cancer model: B16F10 model of pulmonary metastasis; set-up: species or system C57BL6 mice; conditions: intraperitoneal doses at 0.3, 3 and 30 mg/kg, daily, day 21, FIG. 1
Description: In Vivo Cancer Model: B16F10 Model of Pulmonary Metastasis
B16F10 cells were cultured in standard growth media, harvested when approximately 50% confluent and injected into C57BL6 mice via the tail vein (50,000 cells per mouse in 200 μL). Mice were then treated daily with test compound. On day 21, mice were euthanized. Lungs were harvested and placed into Fekete's solution overnight to facilitate visualization of the tumors. Black nodules were enumerated.
Statistics were performed by ANOVA with Dunnett's Multiple Comparison Test post-hoc to determine statistical differences from vehicle treatment group (* denotes P<0.05 while *** denotes P<0.001).

[4] = biological target: T3, Human PPARα (Homo sapiens, UniProt Q07869); assay: Human PPARα Reporter Assay (luciferase); type: cell-based
T3 construct: host or cells: proprietary non-human mammalian cells
T3 sequence (Q07869 1-468): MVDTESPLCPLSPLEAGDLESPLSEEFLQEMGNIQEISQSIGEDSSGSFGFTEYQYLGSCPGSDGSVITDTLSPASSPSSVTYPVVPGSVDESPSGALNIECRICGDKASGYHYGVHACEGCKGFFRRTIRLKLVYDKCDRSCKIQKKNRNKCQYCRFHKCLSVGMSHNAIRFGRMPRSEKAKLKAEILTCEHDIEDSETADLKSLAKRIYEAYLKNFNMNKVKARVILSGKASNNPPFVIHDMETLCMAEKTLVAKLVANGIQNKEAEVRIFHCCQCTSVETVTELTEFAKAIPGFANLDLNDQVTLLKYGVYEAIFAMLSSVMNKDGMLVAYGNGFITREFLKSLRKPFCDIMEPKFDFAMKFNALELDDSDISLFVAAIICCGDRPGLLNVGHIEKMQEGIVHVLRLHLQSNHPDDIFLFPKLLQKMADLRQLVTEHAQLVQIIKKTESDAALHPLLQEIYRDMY
In short: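 Agonist or antagonist activity read as luciferase light from engineered reporter cells carrying human PPARα and a responsive reporter gene. Cells got compound immediately on dispensing, incubated overnight, then treatment media swapped for luciferase detection reagent.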

[5] = biological target: T4, Glucocorticoid Receptor (Homo sapiens, UniProt P04150); assay: Target selectivity counterscreen, Glucocorticoid Receptor reporter assay; type: cell-based; conditions: receptor agonist at ~EC80
T4 construct: host or cells: engineered reporter cells of the kit
T4 sequence (P04150 1-777): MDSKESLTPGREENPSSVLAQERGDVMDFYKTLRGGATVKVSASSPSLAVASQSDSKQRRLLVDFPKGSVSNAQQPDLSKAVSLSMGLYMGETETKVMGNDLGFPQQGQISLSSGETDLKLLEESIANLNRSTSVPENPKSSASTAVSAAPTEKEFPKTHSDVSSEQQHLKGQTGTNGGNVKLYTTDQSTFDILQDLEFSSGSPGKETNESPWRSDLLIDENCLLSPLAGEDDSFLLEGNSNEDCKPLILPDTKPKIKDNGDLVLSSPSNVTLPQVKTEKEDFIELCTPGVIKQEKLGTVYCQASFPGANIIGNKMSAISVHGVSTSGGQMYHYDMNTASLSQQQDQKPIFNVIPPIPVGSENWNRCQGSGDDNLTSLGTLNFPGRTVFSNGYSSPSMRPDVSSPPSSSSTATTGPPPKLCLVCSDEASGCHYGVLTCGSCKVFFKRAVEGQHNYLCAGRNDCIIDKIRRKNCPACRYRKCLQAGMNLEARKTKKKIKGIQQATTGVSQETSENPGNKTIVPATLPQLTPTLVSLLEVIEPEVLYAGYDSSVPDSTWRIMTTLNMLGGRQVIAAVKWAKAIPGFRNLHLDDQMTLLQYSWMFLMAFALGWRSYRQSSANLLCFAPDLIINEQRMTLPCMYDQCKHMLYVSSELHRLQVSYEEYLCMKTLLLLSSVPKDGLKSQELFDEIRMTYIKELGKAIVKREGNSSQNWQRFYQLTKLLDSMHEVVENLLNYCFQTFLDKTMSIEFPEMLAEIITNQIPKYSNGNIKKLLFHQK
Description: as §1, §2

IC50 [1]: 11.4 µM
IC50 [2]: > 10 µM
IC50 ([4]; counterscreen table, antagonist potency, read-out: PPAR alpha IC50): 0.067 µM
IC50 ([4]; human PPARα reporter cells, overnight incubation, antagonism, read-out: Luciferase IC50): 0.067 µM
IC50 [5]: 36.5 µM
SMILES: CCn1c(CCCc2ccc(-c3ccc(NS(=O)(=O)c4ccccc4)cn3)cc2)nn(Cc2ccc(C(C)(C)C)cc2)c1=O [Example 10, N-(6-(4-(3-(1-(4-(tert-Butyl)benzyl)-4-ethyl-5-oxo-4,5-dihydro-1H-1,2,4-triazol-3-yl)propyl)phenyl)pyridin-3-yl)benzenesulfonamide]
metastasis of B16F10 melanoma cells to the lung (black nodules enumerated) [3]: inhibition of metastasis
